From article PMC6727405, “Variation in the metabolites and α-glucosidase inhibitory activity of Cosmos caudatus at different growth stages” (BMC Complementary and Alternative Medicine, 2019) come the findings set out here.

In the assay the target is T1, α-glucosidase type 1 from S. cerevisiae (Sigma G5003).
T1 construct: gene MAL12; commercial enzyme preparation from yeast (Sigma-Aldrich)
The experiment in a line: 4-nitrophenyl alpha-D-glucopyranoside hydrolysis, absorbance […] nm. The following applies: PNPG substrate; phosphate buffer pH 6.5; room temperature; 5 min preincubation; positive control. The format is biochemical, Saccharomyces cerevisiae.

Turning to `O=c1c(O)c(-c2ccc(O)c(O)c2)oc2cc(O)cc(O)c12` [Quercetin], the “α-glucosidase inhibitory activity, IC50 (μg mL^- 1)” value stood at 110.50 ± 4.30 µg/mL.
